Assay [1] deals with P. aeruginosa SR27001 (multi-resistant Pseudomonas aeruginosa; IMP-1 producing strain). Description: Antimicrobial activity in vitro (MIC) of the in vivo test compounds. The format is cell-based. To be noted: addition of Tf. The procedure:
Measurement of Minimum Inhibitory Concentration (MIC, μg/ml) was conducted according to the standard method of the Japan Society for Chemotherapy and the amount of bacteria for inoculation was 1000 cfu/spot, and sensitive disc medium was used as the test medium, and conducted using agar plate incubation.
The antimicrobial activity in vitro (MIC) of the test compounds was determined according to the method of Experimental Example 1.

For assay [2] the test system is unchanged. Description: Antimicrobial activity in vivo, mouse intraperitoneal infection, ED50 from survival rate. The conditions noted are these: Mice (ICR type, male, 5 weeks), intravenous administration in twice from 1.5 h after infection, survival rate after 7 days. The procedure: The antimicrobial activity in vivo of the present compound (I) was determined.
Mice (ICR type, male, 5 weeks) were inoculated intraperitoneally with P. aeruginosa SR27001 (multi-resistant Pseudomonas aeruginosa; IMP-1 producing strain) to raise infection. One and half hours after, mice were treated with intravenious administration in twice, and then the ED50 value was calculated based on the survival rate after 7 days.

Assay [3] concerns Stenotrophomonas maltophilia SR21970. Nature of the assay: Minimum Inhibitory Concentration (MIC), agar plate incubation, CLSI method. Format: cell-based. The conditions noted are these: Stenotrophomonas maltophilia SR21970; L-1, MBL producer strain (carbapenem resistant strain); 10000 cfu/spot; Mueller-Hinton agar medium. The gist of the method:
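MIC against Stenotrophomonas maltophilia SR21970 determined by CLSI agar dilution on Mueller-Hinton agar, inoculum 10000 cfu/spot. Values in μg/ml.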

Assay [4] concerns Pseudomonas aeruginosa SR24. Description: Minimum Inhibitory Concentration (MIC), agar plate incubation, Japan Society for Chemotherapy standard method. The format is cell-based. To be noted: Pseudomonas aeruginosa SR24; no enzyme, ceftazidime sensitive strain; 1000 cfu/spot; sensitive disc medium. The gist of the method: (§1)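 MIC (μg/ml) by agar plate method per Japan Society for Chemotherapy standard. Inoculum 1000 cfu/spot on sensitive disc medium.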

The test system of assay [5] is Klebsiella pneumoniae ATCC 700603. Described as above. The format is cell-based. The conditions noted are these: Klebsiella pneumoniae ATCC 700603; SHV-18, ESBL producer strain; 1000 cfu/spot; sensitive disc medium. The gist of the method:
as §1

The test system of assay [6] is Pseudomonas aeruginosa SR27060. The assay is described as above. Format: cell-based. To be noted: Pseudomonas aeruginosa SR27060; IMP-1, MBL producer strain (carbapenem resistant strain); 1000 cfu/spot; sensitive disc medium. The essentials:
as §1

Assay [7] concerns Acinetobacter baumannii SR24396. Described as above. To be noted: Acinetobacter baumannii SR24396; no enzyme; 1000 cfu/spot; sensitive disc medium. The format is cell-based. The essentials: as §1
Setting [8] is: Pseudomonas aeruginosa, read-out: MIC.
[9] abbreviates: Pseudomonas aeruginosa, read-out: ED50.

Four molecules from patent publication US9145425B2, “Cephem compound having catechol group” (SHIONOGI & CO., LTD., priority 2010, dated 2015) can be followed below.

The MIC is the least concentration at which growth counts as inhibited. As usually defined, the ED50 is the dose at which the effect has come halfway, by size or by number of responders.

Structures are written as SMILES. Counter-ions that a name gives are not always drawn. Like-named read-outs stand apart in the source and are kept apart here.

Regarding `CO/N=C(\C(=O)N[C@@H]1C(=O)N2C(C(=O)[O-])=C(C[N+]3(C)CCCC3)CS[C@H]12)c1csc(N)n1` [CFPM, cefepime hydrochloride hydrate, reference compound], in assay [1] (setting [8]), the MIC is more than 64 µg/mL. Besides, the 50% effective dose (ED50) in assay [2] (setting [9]) was more than 100 mg/kg.

Turning to `C[C@H](O/N=C(\C(=O)N[C@@H]1C(=O)N2C(C(=O)[O-])=C(C[N+]34CCC[C@H]3CN(C(=O)c3ccc(O)c(O)c3Cl)CC4)CS[C@H]12)c1csc(N)n1)C(=O)[O-].[Na+]` (stereo partly shown) [Compound I-13], in assay [1] (setting [8]), the MIC is 1 µg/mL. The median effective dose (ED50) in assay [2] (setting [9]) is 4.22 mg/kg.

With `CC(C)(ON=C(C(=O)NC1C(=O)N2C(C(=O)[O-])=C(C[N+](C)(C)C3CCN(C(=O)c4ccc(O)c(O)c4Cl)C3)CSC12)c1csc(N)n1)C(=O)[O-].[Na+]` (stereo not shown) [Compound I-20], the minimum inhibitory concentration (MIC) in assay [1] was 2 µg/mL. The ED50 in assay [2] is listed as 5.48 mg/kg.

As for `CCC(ON=C(C(=O)NC1C(=O)N2C(C(=O)[O-])=C(C[N+]34CCC(CC3)N(C(=O)c3ccc(O)c(O)c3Cl)CC4)CSC12)c1csc(N)n1)C(=O)[O-].[Na+]` (stereo not shown) [Compound I-25], the MIC in assay [1] was determined as 1 µg/mL. In addition, the “Minimum Inhibitory Concentration (MIC)” value was 1 µg/mL in assay [3]; 0.125 µg/mL in assay [4]; 0.25 µg/mL in assay [5]; 0.5 µg/mL in assay [6]; 0.125 µg/mL in assay [7]. The molecule also came in with a median effective dose (ED50) in assay [2] of 3.34 mg/kg.
